Source: ChEMBL document CHEMBL2429763, “Nonbenzamidine acylsulfonamide tissue factor-factor VIIa inhibitors” (Bioorg Med Chem Lett, 2013)
Calls of active or inactive are those of the source. The calls are words filed in the database; no cut-off is given here.

How the values were obtained:
Trypsin = Trypsin (Homo sapiens, UniProt P07477+P07478+P35030); test: Inhibition of trypsin (unknown origin); format: protein assay
Prothrombin = Prothrombin (Homo sapiens, UniProt P00734); test: Inhibition of thrombin (unknown origin)
Coagulation factor X = Coagulation factor X (Homo sapiens, UniProt P00742); test: Inhibition of factor 10a (unknown origin)
[1] = molecular target: T1, Coagulation factor VII/tissue factor (Homo sapiens) (UniProt P08709+P13726); test: Noncompetitive inhibition of human recombinant soluble tissue factor-factor 7a using physiological substrate; format: protein-complex assay
[2] = molecular target: T1, Coagulation factor VII/tissue factor (Homo sapiens); test: Competitive inhibition of human recombinant soluble tissue factor-factor 7a using tripeptide as substrate; format: protein-complex assay
[3] = Dissociation constant, pKa of the compound; format: physicochemical
[4] = molecular target: Coagulation factor VII/tissue factor (Homo sapiens, UniProt P08709); test: Inhibition of human recombinant soluble tissue factor-factor 7a using H-D-Ile-Pro-Arg-pNA as substrate; format: protein-complex assay
[5] = Anticoagulant activity in plasma (unknown origin) assessed as concentration required to double prothrombin time; format: functional, unidentified
[6] = Oral bioavailability in dog at 0.5 mg/kg; format: ADME, organism-based, Canis lupus familiaris; details: in vivo
[7] = Volume of distribution at steady state in dog at 0.2 mg/kg, iv; format: ADME, organism-based, Canis lupus familiaris; design: dose 0.2 mg/kg, route intravenous; details: in vivo, read-out: Vdss
[8] = Half life in dog at 0.2 mg/kg, iv; format: ADME, organism-based, Canis lupus familiaris; design: dose 0.2 mg/kg, route intravenous; details: in vivo
[9] = Clearance in dog at 0.2 mg/kg, iv; format: ADME, organism-based, Canis lupus familiaris; design: dose 0.2 mg/kg, route intravenous; details: in vivo

Sequence of Coagulation factor VII/tissue factor (P08709 61-212 limits assumed): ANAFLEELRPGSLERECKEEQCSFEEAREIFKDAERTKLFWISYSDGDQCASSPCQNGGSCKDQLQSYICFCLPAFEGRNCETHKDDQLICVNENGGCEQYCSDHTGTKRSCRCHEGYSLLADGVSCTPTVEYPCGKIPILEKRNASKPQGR
Sequence of Coagulation factor VII/tissue factor (P08709 213-466 limits assumed): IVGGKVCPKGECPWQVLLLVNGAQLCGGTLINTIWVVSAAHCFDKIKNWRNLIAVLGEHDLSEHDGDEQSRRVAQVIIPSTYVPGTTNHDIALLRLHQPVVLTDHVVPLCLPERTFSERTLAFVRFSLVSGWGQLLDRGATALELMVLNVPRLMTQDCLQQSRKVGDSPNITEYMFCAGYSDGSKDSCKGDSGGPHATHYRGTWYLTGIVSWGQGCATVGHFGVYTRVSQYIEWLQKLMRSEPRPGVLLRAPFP
Sequence of Coagulation factor VII/tissue factor (P13726 33-295 partner limits assumed): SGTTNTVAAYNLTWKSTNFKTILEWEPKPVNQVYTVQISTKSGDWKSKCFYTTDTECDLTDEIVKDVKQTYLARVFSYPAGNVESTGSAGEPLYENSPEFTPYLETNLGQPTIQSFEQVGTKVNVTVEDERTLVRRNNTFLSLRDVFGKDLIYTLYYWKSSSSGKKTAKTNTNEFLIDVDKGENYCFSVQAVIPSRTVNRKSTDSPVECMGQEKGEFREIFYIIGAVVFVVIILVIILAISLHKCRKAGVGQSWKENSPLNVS
Sequence of Coagulation factor X (P00742 41-179 limits assumed): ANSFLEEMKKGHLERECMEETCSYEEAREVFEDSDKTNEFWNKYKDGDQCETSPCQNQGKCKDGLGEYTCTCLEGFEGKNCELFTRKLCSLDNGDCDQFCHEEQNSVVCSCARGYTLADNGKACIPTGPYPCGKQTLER
Sequence of Coagulation factor X (P00742 235-488 limits assumed): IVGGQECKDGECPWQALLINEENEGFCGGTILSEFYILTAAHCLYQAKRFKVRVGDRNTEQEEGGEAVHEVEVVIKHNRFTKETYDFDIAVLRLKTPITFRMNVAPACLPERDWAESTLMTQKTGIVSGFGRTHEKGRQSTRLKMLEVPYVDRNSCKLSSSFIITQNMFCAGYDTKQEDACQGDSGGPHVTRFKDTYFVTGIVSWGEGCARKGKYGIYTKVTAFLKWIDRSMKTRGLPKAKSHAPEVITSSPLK

| Ki (Trypsin) [µM] | Ki (Prothrombin) [µM] | Ki (Coagulation factor X) [µM] | Ki [4] [µM] | SMILES | also measured |
| --- | --- | --- | --- | --- | --- |
| > 5 | > 13 | 5.4 | 0.07 | CCOc1cc(C(Nc2ccc3cnccc3c2)C(=O)NS(=O)(=O)c2ccccc2)ccc1OC(C)C (centres undefined) | inhibition [1]: Active; inhibition [2]: Active; pKa [3]: 7.8 |
| – | – | – | 0.0013 | CCOc1cc(C(Nc2ccc(C(=N)N)cc2)C(=O)NS(=O)(=O)c2ccccc2)ccc1OC(C)C (centres undefined) | 2PT [5]: 4 µM; inhibition [1]: Active; inhibition [2]: Active |
| > 5 | > 13 | > 8 | 0.018 | CCOc1cc(C(Nc2ccc3c(N)nccc3c2)C(=O)NS(=O)(=O)c2cccc(C(N)=O)c2)ccc1OC(C)C (centres undefined) | – |
| – | – | – | 1.94 | CCOc1cc(C(Nc2ccc3c(N)noc3c2)C(=O)NS(=O)(=O)c2ccccc2)ccc1OC(C)C (centres undefined) | – |
| – | – | – | 2.9 | CCOc1cc(C(Nc2ccc3c(N)n[nH]c3c2)C(=O)NS(=O)(=O)c2ccccc2)ccc1OC(C)C (centres undefined) | – |
| > 5 | > 13 | > 8 | 0.048 | CCOc1cc(C(Nc2ccc3c(N)nccc3c2)C(=O)NS(=O)(=O)c2cccc(N)c2)ccc1OC(C)C (centres undefined) | – |
| > 5 | 9.4 | > 8 | 0.006 | CCOc1cc(C(Nc2ccc3cnccc3c2)C(=O)NS(=O)(=O)c2ccccc2S(=O)(=O)CC)ccc1OC(C)C (centres undefined) | – |
| > 5 | > 13 | > 8 | 0.073 | CCOc1cc(C(Nc2ccc3cnccc3c2)C(=O)NS(=O)(=O)c2ccccc2S(N)(=O)=O)ccc1OC(C)C (centres undefined) | – |
| > 5 | > 13 | > 8 | 8.1 | CCOc1cc(C(Nc2ccc3cnccc3c2)C(=O)NS(=O)(=O)c2ccc(S(C)(=O)=O)cc2)ccc1OC(C)C (centres undefined) | – |
| – | – | – | 0.39 | CCOc1cc(C(Nc2ccc3c(N)ncnc3c2)C(=O)NS(=O)(=O)c2ccccc2)ccc1OC(C)C (centres undefined) | – |
| > 5 | > 13 | 7.2 | 0.78 | CCOc1cc(C(Nc2ccc3cnccc3c2)C(=O)NS(=O)(=O)c2cccc(S(=O)(=O)N(C)C)c2)ccc1OC(C)C (centres undefined) | – |
| > 5 | 7.4 | 5.8 | 0.009 | CCOc1cc(C(Nc2ccc3c(N)nccc3c2)C(=O)NS(=O)(=O)c2ccc(N)cc2)ccc1OC(C)C (centres undefined) | – |
| > 5 | > 13 | > 8 | 0.32 | CCOc1cc(C(Nc2ccc3cnccc3c2)C(=O)NS(=O)(=O)c2ccc(S(N)(=O)=O)cc2)ccc1OC(C)C (centres undefined) | – |
| > 5 | > 13 | > 8 | 0.032 | CCOc1cc(C(Nc2ccc3cnccc3c2)C(=O)NS(=O)(=O)c2cccc(S(N)(=O)=O)c2)ccc1OC(C)C (centres undefined) | – |
| 4.7 | 4.3 | 3.5 | – | CCOc1cc(C(Nc2ccc3c(N)nccc3c2)C(=O)NS(=O)(=O)c2ccccc2)ccc1OC(C)C (centres undefined) | inhibition [1]: Active; inhibition [2]: Active; pKa [3]: 8.9 |
| > 5 | 10.3 | > 8 | 0.012 | CCOc1cc(C(Nc2ccc3cnccc3c2)C(=O)NS(=O)(=O)c2ccccc2S(C)(=O)=O)ccc1OC(C)C (centres undefined) | 2PT [5]: 76 µM |
| 3.04 | 2.9 | 3.05 | 0.197 | CCOc1cc(C(Nc2ccc3c(N)nccc3c2)C(=O)NS(=O)(=O)c2ccc(C)cc2)ccc1OC(C)C (centres undefined) | – |
| > 5 | 9.4 | 5.6 | 0.0028 | CCOc1cc([C@@H](Nc2ccc3c(N)nccc3c2)C(=O)NS(=O)(=O)c2cccc(S(N)(=O)=O)c2)ccc1OC(C)C | 2PT [5]: 14 µM |
| > 5 | 11 | 5.5 | 0.026 | CCOc1cc(C(Nc2ccc3c(N)nccc3c2)C(=O)NS(=O)(=O)c2cccc(O)c2)ccc1OC(C)C (centres undefined) | – |
| > 5 | > 13 | 8.2 | – | CCOc1cc([C@H](Nc2ccc3c(N)nccc3c2)C(=O)NS(=O)(=O)c2ccccc2)ccc1OC(C)C | – |
| > 5 | 6.9 | 7.3 | – | CCOc1cc([C@@H](Nc2ccc3c(N)nccc3c2)C(=O)NS(=O)(=O)c2ccccc2)ccc1OC(C)C | bioavailability [6]: 4%; Vd [7]: 1.5 L/kg; half-life [8]: 1.5 h; clearance [9]: 24 mL/min/kg; 2PT [5]: 36 µM |
| > 5 | > 13 | > 8 | 0.007 | CCOc1cc(C(Nc2ccc3c(N)nccc3c2)C(=O)NS(=O)(=O)c2ccc(O)cc2)ccc1OC(C)C (centres undefined) | – |
| > 5 | > 13 | > 8 | 0.044 | CCOc1cc([C@@H](Nc2ccc3cnccc3c2)C(=O)NS(=O)(=O)c2ccccc2)ccc1OC(C)C | bioavailability [6]: 36%; Vd [7]: 0.6 L/kg; half-life [8]: 0.9 h; clearance [9]: 9.3 mL/min/kg; 2PT [5]: >80 µM |
| > 5 | > 13 | 7 | 0.25 | CCOc1cc(C(Nc2ccc3cnccc3c2)C(=O)NS(=O)(=O)c2cccc(S(=O)(=O)NC)c2)ccc1OC(C)C (centres undefined) | – |
| > 5 | > 13 | 5.9 | 0.01 | CCOc1cc(C(Nc2ccc3c(N)nccc3c2)C(=O)NS(=O)(=O)c2cccc(S(N)(=O)=O)c2)ccc1OC(C)C (centres undefined) | – |
| > 5 | > 13 | > 8 | 0.017 | CCOc1cc([C@@H](Nc2ccc3cnccc3c2)C(=O)NS(=O)(=O)c2cccc(S(N)(=O)=O)c2)ccc1OC(C)C | – |
| – | – | – | 0.67 | CCOc1cc(C(Nc2ccc3nc(N)[nH]c3c2)C(=O)NS(=O)(=O)c2ccccc2)ccc1OC(C)C (centres undefined) | – |
| > 5 | 11 | > 8 | 0.028 | CCOc1cc(C(Nc2ccc3c(N)nccc3c2)C(=O)NS(=O)(=O)c2cccc(CO)c2)ccc1OC(C)C (centres undefined) | – |
| > 5 | > 13 | > 8 | 0.145 | CCOc1cc(C(Nc2ccc3cnccc3c2)C(=O)NS(=O)(=O)c2cccc(S(C)(=O)=O)c2)ccc1OC(C)C (centres undefined) | – |
